Tested on: MSH3
Assay: QPCR assay for levels of MSH3 upon compound treatment in HEK293T or AD293 cells (fold-change of MSH3 transcript, EC50 of MSH3 downregulation; total MSH3 exons 13/14, exons 20/21; Table 8)
Format: cell-based
Details: Homo sapiens, fold-change of the MSH3 transcript, normalized to GAPDH; for mrna remaining at 1 µM: 1 μM compound; for mrna remaining at 10 µM: 10 μM compound
Summary of the method: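 HEK293T or AD293 cells were treated at 1 μM and […]; RNA-to-cDNA qPCR used TaqMan assays for total MSH3 (exons 13/14, exons 20/21) and poison-exon junctions exon 13/PE14A and exon 20/PE21A. Transcript levels were normalized to GAPDH.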

| SMILES | mrna remaining at 1 µM | mrna remaining at 10 µM |
| --- | --- | --- |
| Cc1nn(C)cc1-c1cc2c(cn1)CN(c1ccc(OC3CC(C)(C)NC4(CCC4)C3)nn1)C2=O (stereo not shown) [Compound 593, 6-(1,3-dimethyl-1H-pyrazol-4-yl)-2-(6-((6,6-dimethyl-5-azaspiro[3.5]nonan-8-yl)oxy)pyridazin-3-yl)-2,3-dihydro-1H-pyrrolo[3,4-c]pyridin-1-one] | 105% | 34% |
| CC(C)(O)Cn1cc(-c2cc3c(cn2)CN(c2ccc(O[C@H]4C[C@]5(C)CC[C@](C)(C4)N5)nn2)C3=O)cn1 [Compound 594, 2-(6-(((1R,3s,5S)-1,5-dimethyl-8-azabicyclo[3.2.1]octan-3-yl)oxy)pyridazin-3-yl)-6-(1-(2-hydroxy-2-methylpropyl)-1H-pyrazol-4-yl)-2,3-dihydro-1H-pyrrolo[3,4-c]pyridin-1-one] | 79% | 112% |
| Cc1nn(C)cc1-c1cc2c(nn1)CN(c1ccc(O[C@H]3C[C@]4(C)CC[C@](C)(C3)N4)nn1)C2=O [Compound 595, 3-(1,3-dimethyl-1H-pyrazol-4-yl)-6-(6-(((1R,3s,5S)-1,5-dimethyl-8-azabicyclo[3.2.1]octan-3-yl)oxy)pyridazin-3-yl)-6,7-dihydro-5H-pyrrolo[3,4-c]pyridazin-5-one] | 91% | 18% |
| Cc1nn(C)nc1-c1cc2c(nn1)CN(c1ccc(O[C@H]3C[C@]4(C)CC[C@](C)(C3)N4)nn1)C2=O [Compound 596, 3-(2,5-dimethyl-2H-1,2,3-triazol-4-yl)-6-(6-(((1R,3s,5S)-1,5-dimethyl-8-azabicyclo[3.2.1]octan-3-yl)oxy)pyridazin-3-yl)-6,7-dihydro-5H-pyrrolo[3,4-c]pyridazin-5-one] | 88% | 106% |
| Cc1nn(C)cc1-c1cnc2c(c1)C(=O)N(c1ccc(OC3CC(C)(C)NC4(CCC4)C3)nn1)C2 (stereo not shown) [Compound 597, 3-(1,3-dimethyl-1H-pyrazol-4-yl)-6-(6-((6,6-dimethyl-5-azaspiro[3.5]nonan-8-yl)oxy)pyridazin-3-yl)-6,7-dihydro-5H-pyrrolo[3,4-b]pyridin-5-one] | 98% | 29% |
| Cc1ncc(-c2cnc3c(c2)C(=O)N(c2ccc(O[C@H]4C[C@]5(C)CC[C@](C)(C4)N5)nn2)C3)s1 [Compound 598, 6-(6-(((1R,3s,5S)-1,5-dimethyl-8-azabicyclo[3.2.1]octan-3-yl)oxy)pyridazin-3-yl)-3-(2-methylthiazol-5-yl)-6,7-dihydro-5H-pyrrolo[3,4-b]pyridin-5-one] | 62% | 52% |
| Cn1ncc(-c2cnc3c(c2)C(=O)N(c2ccc(O[C@H]4C[C@]5(C)CC[C@](C)(C4)N5)nn2)C3)n1 [Compound 599, 6-(6-(((1R,3s,5S)-1,5-dimethyl-8-azabicyclo[3.2.1]octan-3-yl)oxy)pyridazin-3-yl)-3-(2-methyl-2H-1,2,3-triazol-4-yl)-6,7-dihydro-5H-pyrrolo[3,4-b]pyridin-5-one] | 94% | 24% |
| Cc1nn(C)nc1-c1cnc2c(c1)C(=O)N(c1ccc(N3CCN[C@@H](C(C)(C)C)C3)nn1)C2 [Compound 600, (S)-6-(6-(3-(tert-butyl)piperazin-1-yl)pyridazin-3-yl)-3-(2,5-dimethyl-2H-1,2,3-triazol-4-yl)-6,7-dihydro-5H-pyrrolo[3,4-b]pyridin-5-one] | 104% | 14% |
| Cn1ncc(-c2cnc3c(c2)C(=O)N(c2ccc(OC4CC(C)(C)NC5(CCC5)C4)nn2)C3)n1 (stereo not shown) [Compound 601, 6-(6-((6,6-dimethyl-5-azaspiro[3.5]nonan-8-yl)oxy)pyridazin-3-yl)-3-(2-methyl-2H-1,2,3-triazol-4-yl)-6,7-dihydro-5H-pyrrolo[3,4-b]pyridin-5-one] | 117% | 82% |
| Cc1nn(C)cc1-c1cnc2c(c1)C(=O)N(c1ccc(N3CCN[C@@H](C(C)C)C3)nn1)C2 [Compound 602, (S)-3-(1,3-dimethyl-1H-pyrazol-4-yl)-6-(6-(3-isopropylpiperazin-1-yl)pyridazin-3-yl)-6,7-dihydro-5H-pyrrolo[3,4-b]pyridin-5-one] | 64% | 29% |
| Cc1nn(C)nc1-c1cnc2c(c1)C(=O)N(c1ccc(N3CCC4(CCCN4)CC3)nn1)C2 [Compound 603, 6-(6-(1,8-diazaspiro[4.5]decan-8-yl)pyridazin-3-yl)-3-(2,5-dimethyl-2H-1,2,3-triazol-4-yl)-6,7-dihydro-5H-pyrrolo[3,4-b]pyridin-5-one] | 155% | 94% |
| CN(c1ccc(N2Cc3ncc(-c4cnn(CC(C)(C)O)c4)cc3C2=O)nn1)[C@H]1C[C@]2(C)CC[C@](C)(C1)N2 [Compound 604, 6-(6-(((1R,3s,5S)-1,5-dimethyl-8-azabicyclo[3.2.1]octan-3-yl)(methyl)amino)pyridazin-3-yl)-3-(1-(2-hydroxy-2-methylpropyl)-1H-pyrazol-4-yl)-6,7-dihydro-5H-pyrrolo[3,4-b]pyridin-5-one] | 63% | 93% |
| Cn1nc(Cl)c(-c2cnc3c(c2)C(=O)N(c2ccc(O[C@@H]4CCC(C)(C)NC(C)(C)C4)nn2)C3)n1 [Compound 605, (R)-3-(5-chloro-2-methyl-2H-1,2,3-triazol-4-yl)-6-(6-((2,2,7,7-tetramethylazepan-4-yl)oxy)pyridazin-3-yl)-6,7-dihydro-5H-pyrrolo[3,4-b]pyridin-5-one] | 82% | 56% |
| Cn1ncc(-c2cnc3c(c2)C(=O)N(c2ccc(S[C@H]4C[C@]5(C)CC[C@](C)(C4)N5)nn2)C3)n1 [Compound 606, 6-(6-(((1R,3s,5S)-1,5-dimethyl-8-azabicyclo[3.2.1]octan-3-yl)thio)pyridazin-3-yl)-3-(2-methyl-2H-1,2,3-triazol-4-yl)-6,7-dihydro-5H-pyrrolo[3,4-b]pyridin-5-one] | 57% | 25% |
| Cn1nc(Cl)c(-c2cnc3c(c2)C(=O)N(c2ccc(O[C@H]4CCC(C)(C)NC(C)(C)C4)nn2)C3)n1 [Compound 607, (S)-3-(5-chloro-2-methyl-2H-1,2,3-triazol-4-yl)-6-(6-((2,2,7,7-tetramethylazepan-4-yl)oxy)pyridazin-3-yl)-6,7-dihydro-5H-pyrrolo[3,4-b]pyridin-5-one] | 72% | 9% |
| Cn1cc(-c2cnc3c(c2)C(=O)N(c2ccc(OC4CC(C)(C)NC(C)(C)C4)nn2)C3)c(Cl)n1 [Compound 608, 3-(3-chloro-1-methyl-1H-pyrazol-4-yl)-6-(6-((2,2,6,6-tetramethylpiperidin-4-yl)oxy)pyridazin-3-yl)-6,7-dihydro-5H-pyrrolo[3,4-b]pyridin-5-one] | 86% | 20% |
| CN(c1ccc(N2Cc3ncc(-c4cn(C)nc4Cl)cc3C2=O)nn1)[C@H]1C[C@]2(C)CC[C@](C)(C1)N2 [Compound 609, 3-(3-chloro-1-methyl-1H-pyrazol-4-yl)-6-(6-(((1R,3s,5S)-1,5-dimethyl-8-azabicyclo[3.2.1]octan-3-yl)(methyl)amino)pyridazin-3-yl)-6,7-dihydro-5H-pyrrolo[3,4-b]pyridin-5-one] | 39% | 7% |
| Cn1nc(Cl)c(-c2cnc3c(c2)C(=O)N(c2ccc(S[C@H]4C[C@]5(C)CC[C@](C)(C4)N5)nn2)C3)n1 [Compound 610, 3-(5-chloro-2-methyl-2H-1,2,3-triazol-4-yl)-6-(6-(((1R,3s,5S)-1,5-dimethyl-8-azabicyclo[3.2.1]octan-3-yl)thio)pyridazin-3-yl)-6,7-dihydro-5H-pyrrolo[3,4-b]pyridin-5-one] | 93% | 66% |
| Cc1nn(C)nc1-c1cnc2c(c1)C(=O)N(c1ccc(S[C@H]3C[C@]4(C)CC[C@](C)(C3)N4)nn1)C2 [Compound 611, 3-(2,5-dimethyl-2H-1,2,3-triazol-4-yl)-6-(6-(((1R,3s,5S)-1,5-dimethyl-8-azabicyclo[3.2.1]octan-3-yl)thio)pyridazin-3-yl)-6,7-dihydro-5H-pyrrolo[3,4-b]pyridin-5-one] | 90% | 79% |
| CN(c1ccc(N2Cc3ncc(-c4nnn(C)n4)cc3C2=O)nn1)[C@H]1C[C@]2(C)CC[C@](C)(C1)N2 [Compound 612, 6-(6-(((1R,3s,5S)-1,5-dimethyl-8-azabicyclo[3.2.1]octan-3-yl)(methyl)amino)pyridazin-3-yl)-3-(2-methyl-2H-tetrazol-5-yl)-6,7-dihydro-5H-pyrrolo[3,4-b]pyridin-5-one] | 109% | 15% |
| Cc1nn(C)nc1-c1cnc2c(c1)C(=O)N(c1ccc(N3C[C@@H](C)NC[C@@H]3C)nn1)C2 [Compound 613, 3-(2,5-dimethyl-2H-1,2,3-triazol-4-yl)-6-(6-((2S,5R)-2,5-dimethylpiperazin-1-yl)pyridazin-3-yl)-6,7-dihydro-5H-pyrrolo[3,4-b]pyridin-5-one] | 130% | 91% |
| C[C@@H]1CN(c2ccc(N3Cc4ncc(-c5nn(C)nc5Cl)cc4C3=O)nn2)[C@@H](C)CN1 [Compound 614, 3-(5-chloro-2-methyl-2H-1,2,3-triazol-4-yl)-6-(6-((2S,5R)-2,5-dimethylpiperazin-1-yl)pyridazin-3-yl)-6,7-dihydro-5H-pyrrolo[3,4-b]pyridin-5-one] | 107% | 79% |
| Cc1nn(C)nc1-c1cnc2c(c1)C(=O)N(c1ccc(N3CCN4CCC[C@H]4C3)nn1)C2 [Compound 615, (S)-3-(2,5-dimethyl-2H-1,2,3-triazol-4-yl)-6-(6-(hexahydropyrrolo[1,2-a]pyrazin-2(1H)-yl)pyridazin-3-yl)-6,7-dihydro-5H-pyrrolo[3,4-b]pyridin-5-one] | 81% | 53% |
